Data from paper PMC3624020 (Nature communications, 2011).

Columns and labels:
[1] = system: PGRMC1 in A549 lung cancer cells; settings: ref [33], [37]; cited from earlier work
[2] = system: sigma-2 receptors in hepatic membrane homogenates; test: blocking of WC-21 photoaffinity labeling of the ~24 kD protein band; format: binding; settings: rat liver membrane homogenates, photo cross-linked with WC-21, western blot

Row | Compound | upregulation of PGRMC1 [1] | blocking of WC-21 labeling of the ~24 kD protein band [2]
1 | Cc1ccc2c(c1)[C@H]1CN(C)CC[C@H]1N2C(=O)CSc1nnnn1-c1ccc(Cl)cc1 [AG-205] | induced an upregulation | 
2 | Cc1ccccc1N=C(N)Nc1ccccc1C [DTG] |  | blocked
3 | COc1cc2c(cc1OC)CN(CCCCNC(=O)c1cc(C)ccc1OC)CC2 [RHM-1, N-[4-(3,4-dihydro-6,7-dimethoxyisoquinolin-2(1H)-yl)butyl]-2-methoxy-5-methylbenzamide] |  | blocked
